Test results as given in ChEMBL document CHEMBL2150898, “Discovery of AM-1638: A Potent and Orally Bioavailable GPR40/FFA1 Full Agonist” (ACS Med Chem Lett, 2012).
The source made the active and inactive calls. The rule behind the calls is not given here.

Columns and labels:
[1] = biological target: T1, Free fatty acid receptor 1 (Homo sapiens, UniProt O14842); assay: Agonist activity at GPR40 expressed in CHO cells after 20 seconds by aequorin bioluminescence assay in presence of 0.1 % human serum; assay type: functional, cell-based
[2] = biological target: T1, Free fatty acid receptor 1; assay: Agonist activity at GPR40 expressed in CHO cells assessed as intrinsic efficacy after 20 seconds by aequorin bioluminescence assay in presence of 0.1 % human serum relative to AM-1638; assay type: functional, cell-based
Mus musculus [3] = assay: Antidiabetic activity in DIO BDF mouse model assessed as reduction in blood glucose-challenge excursion at 60 mg/kg, po administered 1 hr prior glucose-challenge challenge measured after 1 hr by OGTT ( Rvb = 462 mg/dl ); assay type: functional
Mus musculus [4] = assay: Antidiabetic activity in DIO BDF mouse model assessed as increase in plasma insulin level at 60 mg/kg, po administered 1 hr prior glucose-challenge challenge measured after 1 hr by ELISA; assay type: functional, organism-based; parameters: dose 60 mg/kg
Mus musculus [5] = assay: Antidiabetic activity in DIO BDF mouse model assessed as improvement in glucose-challenge AUC(0 to 60 mins) at 60 mg/kg, po administered 1 hr prior glucose-challenge challenge measured after 1 hr by OGTT; assay type: functional
[6] = biological target: T1, Free fatty acid receptor 1; assay: Agonist activity at GPR40 expressed in CHO cells after 20 seconds by aequorin bioluminescence assay in presence of 100 % human serum; assay type: functional, cell-based
[7] = Clearance in mouse at 5 mg/kg, po and 1 mg/kg, iv; assay type: ADME, organism-based; conditions: in vivo
[8] = Cmax in mouse at 5 mg/kg, po; assay type: ADME, organism-based; parameters: dose 5 mg/kg, route oral; conditions: in vivo
[9] = Tmax in mouse at 5 mg/kg, po and 1 mg/kg, iv; assay type: ADME, organism-based; conditions: in vivo
Mus musculus [10] = assay: Antidiabetic activity in DIO BDF mouse model assessed as increase in insulin AUC at 60 mg/kg, po administered 1 hr prior glucose-challenge challenge measured after 1 hr by ELISA; assay type: functional, organism-based; parameters: dose 60 mg/kg
[11] = Oral bioavailability in cynomolgus monkey at 2 mg/kg; assay type: ADME, organism-based, Macaca fascicularis; conditions: in vivo
[12] = Half life in cynomolgus monkey at 0.5 mg/kg, iv; assay type: ADME, organism-based, Macaca fascicularis; parameters: dose 0.5 mg/kg, route intravenous; conditions: in vivo
[13] = Clearance in cynomolgus monkey at 2 mg/kg, po and 0.5 mg/kg, iv; assay type: ADME, organism-based, Macaca fascicularis; conditions: in vivo
[14] = Tmax in cynomolgus monkey at 2 mg/kg, po and 0.5 mg/kg, iv; assay type: ADME, organism-based, Macaca fascicularis; conditions: in vivo
[15] = Cmax in cynomolgus monkey at 2 mg/kg, po; assay type: ADME, organism-based, Macaca fascicularis; parameters: dose 2 mg/kg, route oral; conditions: in vivo
[16] = Oral bioavailability in rat at 2 mg/kg; assay type: ADME, organism-based; conditions: in vivo
[17] = Half life in rat at 0.5 mg/kg, iv; assay type: ADME, organism-based; parameters: dose 0.5 mg/kg, route intravenous; conditions: in vivo
[18] = Clearance in rat at 2 mg/kg, po and 0.5 mg/kg, iv; assay type: ADME, organism-based; conditions: in vivo
[19] = Oral bioavailability in mouse at 5 mg/kg; assay type: ADME, organism-based; conditions: in vivo
[20] = Cmax in rat at 2 mg/kg, po; assay type: ADME, organism-based; parameters: dose 2 mg/kg, route oral; conditions: in vivo
[21] = Tmax in rat at 2 mg/kg, po and 0.5 mg/kg, iv; assay type: ADME, organism-based; conditions: in vivo
[22] = Half life in mouse at 1 mg/kg, iv; assay type: ADME, organism-based; parameters: dose 1 mg/kg, route intravenous; conditions: in vivo

T1 sequence (O14842 whole entry): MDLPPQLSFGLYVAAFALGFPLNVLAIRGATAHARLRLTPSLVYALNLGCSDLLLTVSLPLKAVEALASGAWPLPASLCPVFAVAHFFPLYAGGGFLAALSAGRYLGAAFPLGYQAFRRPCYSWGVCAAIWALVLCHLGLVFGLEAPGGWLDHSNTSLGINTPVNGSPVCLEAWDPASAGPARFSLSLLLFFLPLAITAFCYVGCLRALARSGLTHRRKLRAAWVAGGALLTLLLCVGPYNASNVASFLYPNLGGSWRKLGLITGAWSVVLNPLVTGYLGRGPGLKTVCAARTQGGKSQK

Structure (SMILES) | EC50 [1] | Efficacy [2] | further results
COc1ccc(F)c(-c2ccc(COc3cccc(CCC(=O)O)c3)cc2C(C)(C)C)c1 | 900 nM | 100% | 
COc1ccc(F)c(-c2ccc(COc3cccc([C@@H](CC(=O)O)c4ccccc4)c3)cc2C(C)(C)C)c1 | 1200 nM | 80% | 
CC#C[C@@H](CC(=O)O)c1ccc(OCc2ccc(-c3cccc(OC)c3)cc2)cc1 | 650 nM | 47% | 
CC#C[C@@H](CC(=O)O)c1ccc(OCc2cccc(-c3ccc(C(F)(F)F)cc3)c2)cc1 |  |  | Activity (Mus musculus [3]): 317 mg/dL; Activity (Mus musculus [4]): inactive; Activity (Mus musculus [5]): 34%
COc1ccc(F)c(-c2ccc(COc3cccc([C@H](C)CC(=O)O)c3)cc2C(C)(C)C)c1 | 770 nM | 107% | 
COc1ccc(F)c(-c2ccc(COc3cccc([C@@H](CC(=O)O)C4CCCCC4)c3)cc2C(C)(C)C)c1 | 2100 nM | 41% | 
COc1ccc(F)c(-c2ccc(COc3cccc([C@H](CC(=O)O)C4CC4)c3)cc2C2=CCCC2(C)C)c1 | 1100 nM | 76% | EC50 [6]: 34000 nM
COc1ccc(F)c(-c2ccc(COc3cccc([C@@H](CC(=O)O)C4CCCC4)c3)cc2C(C)(C)C)c1 | 1310 nM | 59% | 
CC#C[C@H](CC(=O)O)c1ccc(OCc2ccc(-c3cc(OC)ccc3F)cc2)cc1 | 2300 nM | 97% | 
COc1ccc(F)c(-c2ccc(COc3cccc(CCC(=O)O)c3)cc2)c1 | 1200 nM | 104% | 
COc1ccc(F)c(-c2ccc(COc3cccc([C@@H](CC(=O)O)C(C)C)c3)cc2C(C)(C)C)c1 | 2200 nM | 86% | 
COc1ccc(F)c(-c2ccc(COc3ccc(CCC(=O)O)cc3)cc2)c1 | 1900 nM | 96% | 
COc1ccc(F)c(-c2ccc(COc3cccc([C@@H](CC(=O)O)C(F)(F)F)c3)cc2C(C)(C)C)c1 | 2100 nM | 111% | 
CC#CC(CC(=O)O)c1ccc(OCc2ccc(-c3cccc(OC)c3)cc2)cc1 (racemic) | 2300 nM | 98% | 
COc1ccc(F)c(-c2ccc(COc3cccc([C@@H](CC(=O)O)C4CCC4)c3)cc2C(C)(C)C)c1 | 420 nM | 106% | 
CC/C=C\C/C=C\C/C=C\C/C=C\C/C=C\C/C=C\CCC(=O)O [DOCONEXENT] | 36000 nM | 67% | 
COc1ccc(F)c(-c2ccc(COc3cccc([C@@H](CC(=O)O)C4CC4)c3)cc2)c1 | 480 nM | 107% | EC50 [6]: 38000 nM
CC[C@H](CC(=O)O)c1cccc(OCc2ccc(-c3cc(OC)ccc3F)c(C(C)(C)C)c2)c1 | 680 nM | 110% | 
CC#CC(CC(=O)O)c1ccc(OCc2ccc(-c3ccccc3)cc2)cc1 (racemic) | 7700 nM | 105% | 
CCC[C@H](CC(=O)O)c1cccc(OCc2ccc(-c3cc(OC)ccc3F)c(C(C)(C)C)c2)c1 | 690 nM | 94% | 
COc1ccc(F)c(-c2ccc(COc3cccc([C@@H](CC(=O)O)C4CC4)c3)cc2C2=CCCC2(C)C)c1 |  |  | clearance [7]: 3 mL/min/kg; EC50 [6]: 710 nM; Cmax [8]: 14 µM; Tmax [9]: 1 h; Activity (Mus musculus [3]): 204 mg/dL; Activity (Mus musculus [10]): Active; Activity (Mus musculus [4]): Active; Activity (Mus musculus [5]): 46%; bioavailability [11]: 71%; half-life [12]: 2.1 h; clearance [13]: 13.5 mL/min/kg; Tmax [14]: 2 h; Cmax [15]: 5.1 µM; bioavailability [16]: 72%; half-life [17]: 1.8 h; clearance [18]: 15.2 mL/min/kg; bioavailability [19]: > 100%; Cmax [20]: 3.6 µM; Tmax [21]: 3.5 h; half-life [22]: 2 h
CC#C[C@H](CC(=O)O)c1ccc(OCc2ccc(-c3cccc(OC)c3)cc2)cc1 | 4000 nM | 99% | 
COc1ccc(F)c(-c2ccc(COc3cccc([C@@H](CC(=O)O)C4CC4)c3)cc2C(C)(C)C)c1 | 370 nM | 103% | EC50 [6]: 1900 nM
